Measured values published in patent US8420608B2, “Active substance combinations with insecticides and acaricide properties” (Bayer Cropscience AG, priority 2008, dated 2013).

What was measured:
Assay type in all cases: in vivo
Spodoptera frugiperda = Spodoptera frugiperda larvae test (sprayed cabbage leaves)
From the text: (§1) The expected action for a given combination of two active compounds can be calculated as follows, according to S. R. Colby, Weeds 15 (1967), 20-22:
(§2) If • X is the kill rate, expressed as a percentage of the untreated control, when employing active compound A at an application rate of m g/ha or in a concentration of m ppm, • Y is the kill rate, expressed as a percentage of the untreated control, when employing active compound B at an application rate of n g/ha or in a concentration of n ppm and • E is the kill rate, expressed as a percentage of the untreated control, when employing active compounds A and B at application rates of m and n g/ha or in a concentration of m and n ppm, then
(§3) If the actual insecticidal kill rate exceeds the calculated value, the kill of the combination is superadditive, i.e. a synergistic effect is present. In this case, the actually observed kill rate must exceed the value calculated using the above formula for the expected kill rate (E).
(§4) To produce a suitable preparation of active compound, 1 part by weight of active compound is mixed with the stated amounts of solvents and emulsifier, and the concentrate is diluted with emulsifier-containing water to the desired concentration.
Cabbage leaves (Brassica oleracea) are treated by spraying with the active compound preparation of the desired concentration and are populated with larvae of the army worm (Spodoptera frugiperda) while the leaves are still moist.
After the desired period of time, the kill in % is determined. 100% means that all caterpillars have been killed; 0% means that none of the caterpillars have been killed. The kill rates determined are entered into Colby's formula.

Myzus persicae = Myzus persicae test (spray on infested cabbage leaves)
From the text: as §1, §2, §3, §4
Cabbage leaves (Brassica oleracea) which are heavily infested by the green peach aphid (Myzus persicae) are treated by spraying with the active compound preparation of the desired concentration.
After the desired period of time, the kill in % is determined. 100% means that all aphids have been killed; 0% means that none of the aphids have been killed. The kill rates determined are entered into Colby's formula.

Phaedon cochleariae = Phaedon cochleariae larvae test (sprayed cabbage leaves)
From the text: as §1, §2, §3, §4
Cabbage leaves (Brassica oleracea) are treated by spraying with the active compound preparation of the desired concentration and are populated with larvae of the mustard beetle (Phaedon cochleariae) while the leaves are still moist.
After the desired period of time, the kill in % is determined. 100% means that all beetle larvae have been killed; 0% means that none of the beetle larvae have been killed. The kill rates determined are entered into Colby's formula.

Tetranychus urticae = test: Tetranychus test (OP-resistant/spray treatment)
From the text: as §1, §2, §3
To produce a suitable preparation of active compound, 1 part by weight of active compound is mixed with the stated amounts of solvents and emulsifier, and the concentrate is diluted with emulsifier-containing water to the desired concentration. […]
After the desired period of time, the activity in % is determined. […]

**Q.** Which “Kill in % after 6d” value (Spodoptera frugiperda; 0.8 g/ha) does the source give for `CCC(C)(C)C(=O)OC1=C(c2ccc(Cl)cc2Cl)C(=O)OC12CCCCC2` [spirodiclofen] here?
**A.** 0%

**Q.** With `Cc1cc(C)c(C2=C(OC(=O)CC(C)(C)C)C3(CCCC3)OC2=O)c(C)c1` [spiromesifen] as the compound, how does the “Kill in % after 6d” value (Myzus persicae; 100 g/ha) read?
**A.** 50%

**Q.** What about the “Kill in % after 6d” value (Phaedon cochleariae; 4 g/ha) of the same compound?
**A.** 0%

**Q.** And the “Kill in % after 6d” value (Spodoptera frugiperda; 0.8 g/ha)?
**A.** 0%

**Q.** What about the “Kill in % after 2d” value (Tetranychus urticae; 4 g/ha) of the same compound?
**A.** 0%

**Q.** Which results are given for `CCOC(=O)OC1=C(c2cc(C)ccc2C)C(=O)N[C@]12CC[C@@H](OC)CC2` [spirotetramat]?
**A.** Kill in % after 6d (Myzus persicae; 0.8 g/ha): 0%; Kill in % after 2d (Phaedon cochleariae; 20 g/ha): 0%; Kill in % after 6d (Spodoptera frugiperda; 0.8 g/ha): 0%

**Q.** For spinetoram, which “Kill in % after 6d” value (Myzus persicae; 0.16 g/ha) is on record?
**A.** 0%

**Q.** And the “Kill in % after 6d” value (Myzus persicae; 20 g/ha)?
**A.** 0%

**Q.** What about the “Kill in % after 6d” value (Phaedon cochleariae; 0.8 g/ha) of the same compound?
**A.** 50%

**Q.** And the “Kill in % after 2d” value (Phaedon cochleariae; 4 g/ha)?
**A.** 50%

**Q.** What about the “Kill in % after 6d” value (Spodoptera frugiperda; 0.16 g/ha) of the same compound?
**A.** 83%

**Q.** And the “Kill in % after 2d” value (Tetranychus urticae; 0.8 g/ha)?
**A.** 0%
